These results are taken from patent publication US20110044938A1 (NYCOMED GMBH, priority 2006, published 2011).

In assay [1] the test system is RKO (RKOp27) human colon adenocarcinoma cells. Kind of assay: Alamar Blue cell viability assay, anti-proliferative/cytotoxic activity on proliferating RKO subclones. The class given is cell-based. To be noted: RKOp27, 72 h, RKO p27 uninduced (proliferating) cells, value = class bound given in Table A, read-out: −logIC50 RKO p27 uninduced (proliferating) (converted). In outline:
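RKOp27 subclones (5000 cells/well) were exposed 24 h after seeding to semi-log compound dilutions in DMEM with 10% FCS, in quadruplicate, for 72 h at 37 °C. Viability was read by Alamar Blue fluorescence (544/590 nm) relative to untreated cells (1% DMSO medium). IC50 came from concentration-effect curves and is reported as −log IC50 [mol/l].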
Background: Alamar Blue is a resazurin reagent that responds to reducing activity.

Assay [2] deals with subclones of RKO colon adenocarcinoma cells (RKOp27 or RKOp21) arrested by Ponasterone A. In words: Alamar Blue cell viability assay, cell cycle specific mode of action: cells arrested by ectopic p27Kip1 induced by Ponasterone A versus proliferating cells. The class given is cell-based. The following applies: Homo sapiens, RKO p27 induced (arrested) cells, 10 μM Ponasterone A, 72 hours, value = class bound given in Table A, read-out: −logIC50 RKO p27 induced (arrested) (converted). In outline:
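RKOp27 or RKOp21 cells, 15000/well in DMEM/10% FCS, either arrested by p27Kip1 induced with 10 μM Ponasterone A or proliferating without inducer; compound added after 24 h, 72 h at 37° C. Alamar Blue fluorescence (544/590 nm), viability as % of untreated cells; −log IC50 reported.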

Consider `CCOc1ccccc1CCC(=O)Nc1sc2c(c1C#N)CCC(OC(=O)NCc1ccno1)C2` (stereo not drawn) [Example 207, Isoxazol-5-ylmethyl-carbamic acid 3-cyano-2-[3-(2-ethoxy-phenyl)-propanoylamino]-4,5,6,7-tetrahydro-benzo[b]thiophen-6-yl ester], for which the IC50 in assay [1] is not above 0.501 µM; in assay [2], not below 100 µM.

Regarding `CCOc1ccccc1CCC(=O)Nc1sc2c(c1C#N)CCC(OC(=O)N1CCCC1)C2` (stereo not drawn) [Example 208, Pyrrolidine-1-carboxylic acid 3-cyano-2-[3-(2-ethoxy-phenyl)-propanoylamino]-4,5,6,7-tetrahydro-benzo[b]thiophen-6-yl ester], the IC50 in assay [1] was not above 0.501 µM; in assay [2] it was not below 100 µM.

In the case of `CCOc1ccccc1CCC(=O)Nc1sc2c(c1C#N)CCC(OC(=O)NCc1ccnn1CC)C2` (stereo not drawn) [Example 209, (2-Ethyl-2H-pyrazol-3-ylmethyl)-carbamic acid 3-cyano-2-[3-(2-ethoxy-phenyl)-propanoylamino]-4,5,6,7-tetrahydro-benzo[b]thiophen-6-yl ester], the IC50 is not above 0.501 µM in assay [1] and not below 100 µM in assay [2].

Consider `CCOc1ccccc1CCC(=O)Nc1sc2c(c1C#N)CCC(OC(=O)NCc1nc(C)cs1)C2` (stereo not drawn) [Example 210, (4-Methyl-thiazol-2-ylmethyl)-carbamic acid 3-cyano-2-[3-(2-ethoxy-phenyl)-propanoylamino]-4,5,6,7-tetrahydro-benzo[b]thiophen-6-yl ester], for which the IC50 was 0.501 to 2 µM in assay [1] and not below 100 µM in assay [2].

As for `CCOc1ccccc1CCC(=O)Nc1sc2c(c1C#N)CCC(OC(=O)OCc1cncs1)C2` (stereo not drawn) [Example 211, Carbonic acid 3-cyano-2-[3-(2-ethoxy-phenyl)-propanoylamino]-4,5,6,7-tetrahydro-benzo[b]thiophen-6-yl ester thiazol-5-ylmethyl ester], the IC50 is 0.501 to 2 µM in assay [1] and not below 100 µM in assay [2].

As to `CCOc1ccccc1CCC(=O)Nc1sc2c(c1C#N)CCC(COC(=O)NCc1cnoc1C)C2` (stereo not drawn) [Example 212, (5-Methyl-isoxazol-4-ylmethyl)-carbamic acid 3-cyano-2-[3-(2-ethoxy-phenyl)-propanoylamino]-4,5,6,7-tetrahydro-benzo[b]thiophen-6-ylmethyl ester], the IC50 in assay [1] is not above 0.501 µM; in assay [2], not below 100 µM.

On to `CCOc1ccccc1CCC(=O)Nc1sc2c(c1C#N)CCC(COC(=O)NCc1csc(C)n1)C2` (stereo not drawn) [Example 213, (2-Methyl-thiazol-4-ylmethyl)-carbamic acid 3-cyano-2-[3-(2-ethoxy-phenyl)-propanoylamino]-4,5,6,7-tetrahydro-benzo[b]thiophen-6-ylmethyl ester], for which the IC50 in assay [1] was not above 0.501 µM; in assay [2], not below 100 µM.

With `CCOc1ccccc1CCC(=O)Nc1sc2c(c1C#N)CCC(COC(=O)NCc1nc(C)cs1)C2` (stereo not drawn) [Example 214, (4-Methyl-thiazol-2-ylmethyl)-carbamic acid 3-cyano-2-[3-(2-ethoxy-phenyl)-propanoylamino]-4,5,6,7-tetrahydro-benzo[b]thiophen-6-ylmethyl ester], the IC50 is not above 0.501 µM in assay [1] and not below 100 µM in assay [2].

For `CCOc1ccccc1CCC(=O)Nc1sc2c(c1C#N)CCC(COC(=O)OCc1cncs1)C2` (stereo not drawn) [Example 215, Carbonic acid 3-cyano-2-[3-(2-ethoxy-phenyl)-propanoylamino]-4,5,6,7-tetrahydro-benzo[b]thiophen-6-ylmethyl ester thiazol-5-ylmethyl ester], the IC50 in assay [1] is not above 0.501 µM; in assay [2], not below 100 µM.

For the molecule `CCOc1ccccc1CCC(=O)Nc1sc2c(c1C#N)CCC(COC(=O)N1CCOCC1)C2` (stereo not drawn) [Example 216, Morpholine-4-carboxylic acid 3-cyano-2-[3-(2-ethoxy-phenyl)-propanoylamino]-4,5,6,7-tetrahydro-benzo[b]thiophen-6-ylmethyl ester], the values for the IC50 in assay [1] and in assay [2] were not above 0.501 µM and not below 100 µM, respectively.

For `COCCOC(=O)OC1CCc2c(sc(NC(=O)CCc3cccc(OC)c3)c2C#N)C1` (stereo not drawn) [Example 217, Carbonic acid 3-cyano-2-[3-(3-methoxy-phenyl)-propanoylamino]-4,5,6,7-tetrahydro-benzo[b]thiophen-6-yl ester 2-methoxy-ethyl ester], the IC50 was 0.501 to 2 µM in assay [1] and not below 100 µM in assay [2].

For the molecule `COCCNC(=O)OC1CCc2c(sc(NC(=O)CCc3cccc(OC)c3)c2C#N)C1` (stereo not drawn) [Example 218, (2-Methoxy-ethyl)-carbamic acid 3-cyano-2-[3-(3-methoxy-phenyl)-propanoylamino]-4,5,6,7-tetrahydro-benzo[b]thiophen-6-yl ester], the figures for the IC50 in assay [1] and in assay [2] were not above 0.501 µM and not below 100 µM, respectively.

Consider `COc1cccc(CCC(=O)Nc2sc3c(c2C#N)CCC(OC(=O)OCc2cccnc2)C3)c1` (stereo not drawn) [Example 219, Carbonic acid 3-cyano-2-[3-(3-methoxy-phenyl)-propanoylamino]-4,5,6,7-tetrahydro-benzo[b]thiophen-6-yl ester pyridin-3-ylmethyl ester], for which the IC50 is 0.501 to 2 µM in assay [1] and not below 100 µM in assay [2].

For `COc1cccc(CCC(=O)Nc2sc3c(c2C#N)CCC(OC(=O)NCC2CCOCC2)C3)c1` (stereo not drawn) [Example 220], the IC50 in assay [1] is 0.501 to 2 µM; in assay [2], not below 100 µM.

Consider `COc1cccc(CCC(=O)Nc2sc3c(c2C#N)CCC(OC(=O)NCc2ccnn2C)C3)c1` (stereo not drawn) [Example 221, (2-Methyl-2H-pyrazol-3-ylmethyl)-carbamic acid 3-cyano-2-[3-(3-methoxy-phenyl)-propanoylamino]-4,5,6,7-tetrahydro-benzo[b]thiophen-6-yl ester], for which the IC50 in assay [1] was not above 0.501 µM; in assay [2] it was not below 100 µM.

In the case of `COc1cccc(CCC(=O)Nc2sc3c(c2C#N)CCC(OC(=O)NCc2cn(C)cn2)C3)c1` (stereo not drawn) [Example 222, (1-Methyl-1H-imidazol-4-ylmethyl)-carbamic acid 3-cyano-2-[3-(3-methoxy-phenyl)-propanoylamino]-4,5,6,7-tetrahydro-benzo[b]thiophen-6-yl ester], the IC50 is 0.501 to 2 µM in assay [1] and not below 100 µM in assay [2].

Regarding `COc1cccc(CCC(=O)Nc2sc3c(c2C#N)CCC(OC(=O)NCc2cnn(C)c2)C3)c1` (stereo not drawn) [Example 223, (1-Methyl-1H-pyrazol-4-ylmethyl)-carbamic acid 3-cyano-2-[3-(3-methoxy-phenyl)-propanoylamino]-4,5,6,7-tetrahydro-benzo[b]thiophen-6-yl ester], the IC50 was not above 0.501 µM in assay [1] and not below 100 µM in assay [2].

Take `COc1cccc(CCC(=O)Nc2sc3c(c2C#N)CCC(OC(=O)NCc2cc(C)on2)C3)c1` (stereo not drawn) [Example 224, (5-Methyl-isoxazol-3-ylmethyl)-carbamic acid 3-cyano-2-[3-(3-methoxy-phenyl)-propanoylamino]-4,5,6,7-tetrahydro-benzo[b]thiophen-6-yl ester]: the IC50 is 0.501 to 2 µM in assay [1] and not below 100 µM in assay [2].

With `COc1cccc(CCC(=O)Nc2sc3c(c2C#N)CCC(OC(=O)NCC2CCCO2)C3)c1` (stereo not drawn) [Example 225, (Tetrahydro-furan-2-ylmethyl)-carbamic acid 3-cyano-2-[3-(3-methoxy-phenyl)-propanoylamino]-4,5,6,7-tetrahydro-benzo[b]thiophen-6-yl ester], the IC50 is 0.501 to 2 µM in assay [1] and not below 100 µM in assay [2].

Consider `COc1cccc(CCC(=O)Nc2sc3c(c2C#N)CCC(OC(=O)NCc2cc(C)nn2C)C3)c1` (stereo not drawn) [Example 226, (2,5-Dimethyl-2H-pyrazol-3-ylmethyl)-carbamic acid 3-cyano-2-[3-(3-methoxy-phenyl)-propanoylamino]-4,5,6,7-tetrahydro-benzo[b]thiophen-6-yl ester], for which the IC50 in assay [1] is not above 0.501 µM; in assay [2], not below 100 µM.

On to `COc1cccc(CCC(=O)Nc2sc3c(c2C#N)CCC(OC(=O)NCc2cnoc2C)C3)c1` (stereo not drawn) [Example 227, (5-Methyl-isoxazol-4-ylmethyl)-carbamic acid 3-cyano-2-[3-(3-methoxy-phenyl)-propanoylamino]-4,5,6,7-tetrahydro-benzo[b]thiophen-6-yl ester], for which the IC50 was not above 0.501 µM in assay [1] and not below 100 µM in assay [2].

As for `COc1cccc(CCC(=O)Nc2sc3c(c2C#N)CCC(OC(=O)NCc2conc2C)C3)c1` (stereo not drawn) [Example 228, (3-Methyl-isoxazol-4-ylmethyl)-carbamic acid 3-cyano-2-[3-(3-methoxy-phenyl)-propanoylamino]-4,5,6,7-tetrahydro-benzo[b]thiophen-6-yl ester], the IC50 was not above 0.501 µM in assay [1] and not below 100 µM in assay [2].

`COc1cccc(CCC(=O)Nc2sc3c(c2C#N)CCC(OC(=O)NCc2ccno2)C3)c1` (stereo not drawn) [Example 229, Isoxazol-5-ylmethyl-carbamic acid 3-cyano-2-[3-(3-methoxy-phenyl)-propanoylamino]-4,5,6,7-tetrahydro-benzo[b]thiophen-6-yl ester]: the IC50 in assay [1] is 0.501 to 2 µM; in assay [2], not below 100 µM.

As for `COc1cccc(CCC(=O)Nc2sc3c(c2C#N)CCC(OC(=O)NCc2cc(C)no2)C3)c1` (stereo not drawn) [Example 230, (3-Methyl-isoxazol-5-ylmethyl)-carbamic acid 3-cyano-2-[3-(3-methoxy-phenyl)-propanoylamino]-4,5,6,7-tetrahydro-benzo[b]thiophen-6-yl ester], the IC50 in assay [1] was 0.501 to 2 µM; in assay [2], not below 100 µM.
